According to paper PMC3671673, “In Vitro Morphological Assessment of Apoptosis Induced by Antiproliferative Constituents from the Rhizomes of Curcuma zedoaria” (Evidence-based Complementary and Alternative Medicine : eCAM, 2013):
In brackets after ≈: the same amount, converted by molar mass. Read-outs that look alike come from different tables or passages of the source.

Columns and labels:
[1] = tested on: nasopharyngeal carcinoma cell line (KB); experiment: Neutral red cytotoxicity assay, KB; format: cell-based, human; conditions: extracts, 72 h, mean ± SD of three replicates
Method: (§1) The human cancer cells KB, Ca Ski, MCF-7, HCT-116, A549, and noncancer human cell lines (MRC-5) were purchased from the American Tissue Culture Collection (ATCC, USA). The supplemented RPMI 1640 media and eagle minimum essential medium (EMEM) were purchased from Sigma-Aldrich, USA. The supplements or antibiotics such as foetal bovine serum (FBS), penicillin/streptomycin (P/S) (100 μg/mL), amphotericin B (50 μg/mL), and accutase were purchased from PAA Laboratories, Austria. Sodium pyruvate (11 mg/mL) purchased from Sigma-Aldrich, USA. […] Microtiter plate incubator shaker (LT Biomax 500) was used and absorbance was measured at 540 nm using an ELISA microplate reader (EMax microplate reader of Molecular Devices, USA). […]
(§2) The in vitro cytotoxicity activity was performed using the neutral red cytotoxicity assay based on the initial protocol as described earlier with some modifications. […] The density of the viable cells was counted by 0.4% of trypan blue exclusion in a haemocytometer. […] The optical density (OD) of the eluted dye was read at 540 nm using a microplate reader. […] Cytotoxicity of each test agent is expressed as IC50 value. […]

[2] = tested on: cervical carcinoma cell line (Ca Ski); experiment: cells; format: cell-based; conditions: Homo sapiens, 72 h, neutral red, mean ± SD of three replicates, read-out: IC50 (μg/mL) Ca Ski
Method: (§3) The human cancer cells KB, Ca Ski, MCF-7, HCT-116, A549, and noncancer human cell lines (MRC-5) were purchased from the American Tissue Culture Collection (ATCC, USA). The supplemented RPMI 1640 media and eagle minimum essential medium (EMEM) were purchased from Sigma-Aldrich, USA. The supplements or antibiotics such as foetal bovine serum (FBS), penicillin/streptomycin (P/S) (100 μg/mL), amphotericin B (50 μg/mL), and accutase were purchased from PAA Laboratories, Austria. Sodium pyruvate (11 mg/mL) purchased from Sigma-Aldrich, USA. The cells were cultured in a SHEL LAB water-jacketed CO2 incubator with […] tissue culture flasks (Nunc, Denmark), which was observed routinely under inverted microscope (Leica DMI3000 B, Germany) for any contamination and seeded into 96-well flat bottom microtiter plate (Nunc, Denmark). The extract or pure compounds was dissolved in dimethyl sulfoxide (DMSO, Molecular Biology Grade, >99.9%) from Sigma-Aldrich, USA. Microtiter plate incubator shaker (LT Biomax 500) was used and absorbance was measured at 540 nm using an ELISA microplate reader (EMax microplate reader of Molecular Devices, USA). MCF-7 and Ca Ski were cultured in RPMI 1640 media supplemented with 10% v/v FBS, P/S, and amphotericin B and MRC-5 in EMEM media with 10% v/v FBS, P/S, amphotericin B, and sodium pyruvate. The cells were cultured in tissue culture flask in 5% CO2 incubator kept at 37°C in a humidified atmosphere and observed routinely under inverted microscope from any contaminations. Each fresh medium was replaced every 2 or 3 days until cell confluence was achieved and the cells were detached by using accutase.
(§4) The in vitro cytotoxicity activity was performed using the neutral red cytotoxicity assay based on the initial protocol as described earlier with some modifications. Briefly, cells were detached from the tissue culture flask with 1.0 mL solution of accutase and PBS solution. The cell pellet was obtained by centrifugation at 1,000 rpm for 5 minutes. The density of the viable cells was counted by 0.4% of trypan blue exclusion in a haemocytometer. Cells were then plated in 96-well microtiter plate (Nunc), at a concentration of 1 × 10^4 cells/well and incubated in a CO2 incubator at 37°C to allow the cells to adhere. After 24 h, the cells were treated with six different concentrations, that is, 1, 10, 25, 50, 75, and 100 μg/mL of each tested agent in three replicates. The plates were incubated for 72 h at 37°C in a 5% CO2 incubator. The untreated cells were regarded as a negative control, whilst cells incubated only with DMSO (0.5%, v/v) were used as a vehicle control. No effect due to the DMSO was observed. Doxorubicin was used as the positive control. After 72 h, the old medium was substituted with fresh medium containing 50 μg/mL neutral red. The 96-well plates were placed into incubator for 3 h. This is to allow the uptake of the vital dye into the lysosomes of viable and undamaged cells. Then, the media was discarded and cells were washed with 200 μL of neutral red washing solution. The dye was eluted from the cells by adding neutral red resorb solution (200 μL). The plate was further incubated for 30 min with rapid agitation on a microtiter plate shaker. The optical density (OD) of the eluted dye was read at 540 nm using a microplate reader. The experiments were conducted in triplicates. The percentage of inhibition of each of the test samples was calculated according to the following formula using the OD values obtained: percentage of inhibition (%) = (OD control − OD sample)/OD control × 100%. The average of three replicates was then obtained. Cytotoxicity of each test agent is expressed as IC50 value. The IC50 value is the concentration of test agents that cause 50% inhibition or cell death, averaged from the three experiments. The IC50 for each extract was extrapolated from the graphs of the percentage inhibition versus concentration of test agents.

[3] = tested on: hormone-dependent breast cancer cell line (MCF-7); experiment: cells; format: cell-based; conditions: Homo sapiens, MCF7, 72 h, neutral red, mean ± SD of three replicates, read-out: IC50 (μg/mL) MCF-7
Method: as §3, §4

[4] = tested on: colon carcinoma cell line (HCT-116); experiment: Neutral red cytotoxicity assay, HCT-116; format: cell-based; conditions: Homo sapiens, 72 h, mean ± SD of three replicates, read-out: IC50 (μg/mL) HCT-116
Method: as §3
as §4, with “The percentage of inhibition of each of the test samples was calculated according to the following formula using the OD values obtained: percentage of inhibition (%) = (OD control − OD sample)/OD control × 100%. The average of three replicates was then obtained.” left out, “The IC50 value is the concentration of test agents that cause 50% inhibition or cell death, averaged from the three experiments. The IC50 for each extract was extrapolated from the graphs of the percentage inhibition versus concentration of test agents.” left out

[5] = tested on: lung carcinoma cell line (A549); experiment: Neutral red cytotoxicity assay, A549; format: cell-based; conditions: Homo sapiens, extracts, 72 h, mean ± SD of three replicates, read-out: IC50 (μg/mL) A549
Method: as §1, §2

[6] = tested on: noncancer human lung fibroblast cell line (MRC-5); experiment: Neutral red cytotoxicity assay, MRC-5; format: cell-based; conditions: 72 h, mean ± SD of three replicates, read-out: IC50 (μg/mL) MRC-5
Method: as §3
as §4, with “The percentage of inhibition of each of the test samples was calculated according to the following formula using the OD values obtained: percentage of inhibition (%) = (OD control − OD sample)/OD control × 100%. The average of three replicates was then obtained.” left out, “The IC50 value is the concentration of test agents that cause 50% inhibition or cell death, averaged from the three experiments. The IC50 for each extract was extrapolated from the graphs of the percentage inhibition versus concentration of test agents.” left out

[7] = tested on: cervical carcinoma cell line (Ca Ski); design: method as in PMID 19471192; conditions: reported previously, ref [21]; cited from earlier work
[8] = tested on: hormone-dependent breast cancer cell line (MCF-7); design: method as in PMID 19471192; conditions: MCF-7, reported previously, ref [21]; cited from earlier work
[9] = tested on: colon carcinoma cell line (HCT-116); design: method as in PMID 19471192; conditions: HCT-116, reported previously, ref [21]; cited from earlier work

In the case of COc1cccc2c1C(=O)c1c(O)c3c(c(O)c1C2=O)C[C@@](O)(C(=O)CO)C[C@@H]3O[C@H]1C[C@H](N)[C@H](O)[C@H](C)O1 [Doxorubicin, reference compound], the “IC50 (μg/mL) KB” value [1] is reported as 0.27 ± 0.01 µg/mL (≈ 0.497 µM), the IC50 ([2]; extracts) is reported as 0.18 ± 0.06 µg/mL (≈ 0.331 µM) and the IC50 ([3]; extracts) is reported as 0.05 ± 0.01 µg/mL (≈ 0.092 µM). For the same molecule, the IC50 ([4]; extracts) was 0.24 ± 0.04 µg/mL (≈ 0.442 µM), the IC50 [5] was 0.58 ± 0.01 µg/mL (≈ 1.07 µM) and the IC50 ([6]; MRC5, extracts) was 0.4 ± 0.03 µg/mL (≈ 0.736 µM).
Molecule C/C1=C\CC[C@H](C)C(=O)C[C@H](C(C)C)C(=O)C1 [Neocurdione (2), neocurdione] has an IC50 ([2]; isolated compounds) of 46.2 ± 1.1 µg/mL (≈ 195 µM), an IC50 ([3]; isolated compounds) of 53.5 ± 1.1 µg/mL (≈ 226 µM) and an IC50 ([4]; isolated compounds) of 64 ± 1.3 µg/mL (≈ 271 µM). It also gave an IC50 ([6]; MRC5, isolated compounds) of 59 ± 0.4 µg/mL (≈ 250 µM).
In the case of C/C1=C\CC[C@@]2(C)O[C@@H]2C(=O)c2c(C)coc2C1 [Zederone (5), zederone], the IC50 ([2]; isolated compounds) is reported as over 100 µg/mL, the IC50 ([3]; isolated compounds) is reported as over 100 µg/mL and the IC50 ([4]; isolated compounds) is reported as over 100 µg/mL. It also gave an IC50 ([6]; MRC5, isolated compounds) of over 100 µg/mL.
In the case of CC[C@H](CC[C@@H](C)[C@H]1CC[C@H]2[C@@H]3CC=C4C[C@@H](O)CC[C@]4(C)[C@H]3CC[C@]12C)C(C)C [β-sitosterol (8), β-sitosterol], the “cytotoxicity (in words)” value [7] is given as “low cytotoxicity”, the “cytotoxicity (in words)” value [8] is given as “low cytotoxicity” and the “cytotoxicity (in words)” value [9] is given as “low cytotoxicity”.
